Laboratory results as given in patent US11826403B2, “Target for diabetes treatment and prevention” (UNIVERSITE DE STRASBOURG, priority 2014, dated 2023).

Assays:
Alms1foz/foz mice = assay: Insulin tolerance test (ITT) in Alms1foz/foz mice; assay type: in vivo, mouse
Excerpt: Six month old obese and young (<60 days old) nonobese Alms1^foz/foz mice and wildtype (WT) littermates were used to investigate what primary metabolic impairment leads Alms1^foz/foz mice to develop T2DM. Six month old Alms1^foz/foz mice were obese with an average body weight of 45.5 g±1.7 g compared to 26.4 g±1.3 g for WT littermates (FIG. 1A) and as previously shown had fasting hyperglycaemia and impaired glucose tolerance with elevated HOMA scores. […] (FIG. 1C). Obesity of Alms1^foz/foz mice was due to severe adipocyte hypertrophy (FIG. 1B) rather than the adipocyte hyperplasia more typically seen in obese BBS mice. To determine what the primary defect was that was causing the glucose intolerance in Alms1^foz/foz mice, young lean Alms1^foz/foz mice were studied to remove the confounding effect of obesity on insulin responsiveness. […]
Biochemical tests. […] Tail blood was obtained and the plasma glucose was determined for each mouse using a glucometer (Optium Xceed, Abbott, USA) and blood glucose test strips (Optium point of care, Abbott, USA) at 0, 15, 30 and 60 min after insulin injection. […] Plasma glucose was determined for each mouse using a glucometer with sampling via tail vein at 0, 15, 30, 60 and 120 min after glucose injection. […] The homeostasis model assessment of insulin resistance (HOMA-IR) index was calculated using individual mouse fasting insulin and fasting glucose levels. […]

human mature adipocytes [1] = assay: Electron microscopy of vesicle swelling and fusion with the plasma membrane; assay type: cell-based
Excerpt: (§1) The inventors next tested whether acidifying ALMS1-silenced adipocytes using Nigericin (NIG.), an electroneutral K^+/H^+ exchange ionophore known to cause osmotic swelling of the GSVs would bypass the Alms1-associated defect in GLUT4 fusion and glucose absorption.

human mature adipocytes [2] = assay: 2-NBDG absorption in control and ALMS1-silenced mature adipocytes; assay type: cell-based; settings: for 2-NBDG absorption: ALMS1-silenced adipocytes, 30 min stimulation
Protocol: (§2) Cell culture. Human white visceral preadipocytes (Catalog #: C-12732; PromoCell) and human mesenchymal stem cells (Catalog #: C-12974; PromoCell) derived from healthy bone marrow were purchased. The preadipocytes were seeded according to manufacturer's protocol and cultured in the Preadipocyte growth medium (Catalog #: C-27410; PromoCell) to confluence. One day before inducing terminal adipogenesis, the cells were infected with specific lentiviral particles consisted of a pool of 3 shRNAs target-specific constructs purchased from Santa Cruz Biotechnology and on the next day, adipogenic differentiation was induced by changing the medium to the Preadipocyte Differentiation Medium (Catalog #: C-27436; PromoCell) for 2 days. After the differentiation phase, the medium was finally changed to the Adipocyte Nutrition medium (Catalog #: C-27438; PromoCell). For the culture without insulin, Adipocyte Basal Medium (Catalog #: C-2431; PromoCell) without insulin was complemented with 5 g/L of deoxyglucose, 8 μg/mL d-Biotin, 400 ng/mL Dexamethasone. For the hMSCs, they were cultured in Mesenchymal Stem Cell Growth Medium (Catalog #: C-28010; PromoCell) to confluence. hMSCs were transfected with specific siRNAs as described above and on the next day adipogenic differentiation was induced by changing the medium to the MSC Adipogenic Differentiation Medium (Catalog #: C28011; Promocell).
Following ALMS1 silencing in 2-week-old mature adipocytes, glucose absorption capacity was assessed using labelled glucose analogue (2-NBDG). In the absence of insulin stimulation, no 2-NBDG uptake could be detected in ALMS1-silenced and control mature adipocytes (FIG. 2A). […] Further to reduced glucose absorption in ALMS1-silenced adipocytes, the inventors observed a reduction in intracellular triglycerides (TG) in these cells a week later (FIGS. 2C-D). […]

human mature adipocytes [3] = assay: Acridine orange acidification of adipocytes (time lapse); assay type: cell-based
Excerpt: While AKT-phosphorylation of TBC1D4 has been known to in some way lead to GLUT4 trafficking, the ultimate GSV-PM fusion step is an insulin regulated non-AKT dependent event that requires osmotic swelling of the GSVs under the action of the vATPase H^+ pump. However, knowledge of the actual signal and mechanism for activation of the H^+ pump by insulin was missing. The inventors tested if ALMS1 inactivation could prevent the acidification of the GSVs and therefore the chemo-osmotic-mediated release of GLUT4 to the PM using the acidotrophic dye, acridine orange, which emits a green fluorescence at low concentration and an orange-red fluorescence at high concentrations in the lysosomes in which acridine orange is protonated and sequestered. In absence of insulin, no orange-red fluorescence was detected in the adipocytes.
as §1

[4] = tested on: ALMS1-silenced adipocytes; assay: Immunodetection of GLUT4 / TBC1D4 at the plasma membrane in ALMS1-silenced adipocytes; assay type: cell-based, human; settings: NIG-treated ALMS1-silenced adipocytes
Protocol: Western blots and immunofluorescence microscopy. Male Alms1^foz/foz and WT littermates were anaesthetized. The following insulin sensitive tissues: liver, heart, muscle and adipose tissue were harvested and directly placed in RIPA buffer (Tris 50 mM, NaCl 150 mM, 0.1% SDS, 1% Triton-X100) supplemented with Complete mini protease inhibitor cocktail and PhosSTOP phosphatase inhibitor cocktail (Roche, Switzerland). Samples were sonicated and centrifuged […] at 17 000 g, 4° C. […]. Protein concentration assayed with BCA assay (Thermo Fisher Scientific, USA). Cellular proteins from cells were obtained by trichloroacetic acid precipitation and immunoblot analyses were performed using 30-50 μg total protein. Specific antibody binding was visualized using the SuperSignal® West Femto Maximum Sensitivity Substrate (catalog #: Lf145954, Pierce) on a BioRad Versadoc™ Imaging System or ImageQuant LAS 4000 imager (GE Healthcare, UK). Nonspecific proteins stained with Ponceau S were used as loading controls to normalize the signal obtained after specific immunodetection of the protein of interest using the Bio-Rad Quantity One program. For immunofluorescence experiments, the cells were seeded on permanox 8-wells Lab-Tek II Chamber Slide (Catalog #: 177445; NUNC). Cells were treated as indicated. […]

[5] = tested on: ALMS1-silenced adipocytes; assay: Intracellular triglyceride (TG) filling of ALMS1-silenced adipocytes; assay type: cell-based, human; settings: 24-hours post NIG treatment
Protocol: Fluorescence measurement. The preadipocytes were cultured in a 96 well plate and 12 wells infected with the either ALMS1 shRNA lentiviral particles or CTRL shRNA lentiviral particles and differentiated the next day into mature adipocytes. 3 weeks later, the intracellular triglycerides were stained with AdipoRed staining following the manufacturer's procedure and the fluorescence was measured on a Tecan Infinite 200 quad4 monochromator (Tecan, Lyon, France) at a wavelength of 520 nm. The generated data were then analyzed using the Tecan Magellan Data Analysis software using as blank unstained adipocytes. The inventors next tested whether acidifying ALMS1-silenced adipocytes using Nigericin (NIG.), an electroneutral K^+/H^+ exchange ionophore known to cause osmotic swelling of the GSVs would bypass the Alms1-associated defect in GLUT4 fusion and glucose absorption.

mature adipocytes = assay: 2-NBDG glucose absorption in mature adipocytes infected with min-αPKC lentiviral particles; assay type: cell-based, human; settings: n=8 per group
Protocol: as §2, with “Promocell). […]” for “Promocell).”

[6] = control human mature adipocytes

Row | Compound | insulin responsiveness (ITT) (Alms1foz/foz mice; 2 months old nonobese Alms1foz/foz males) | glycaemia response to insulin administration (ITT) (Alms1foz/foz mice; six month old obese Alms1foz/foz mice, doses as high as 20 U/kg) | vesicular swelling and fusion with the PM (human mature adipocytes [1]; ALMS1-silenced adipocytes) | vesicular swelling and fusion with the PM (human mature adipocytes [1]; control adipocytes) | 2-NBDG absorption (human mature adipocytes [2]) | 2-NBDG uptake (human mature adipocytes [2]; control human mature adipocytes, insulin stimulation) | acidification (acridine orange orange-red fluorescence) (human mature adipocytes [3]; ALMS1-silenced adipocytes) | acidification (acridine orange orange-red fluorescence) (human mature adipocytes [3]; [6]) | GLUT4 fusion with the PM [4] | TG-filling of adipocytes [5] | 2-NBDG absorption, increase compare to control (mature adipocytes; absence of INS, control lentiviral particles as comparator) [times] | 2-NBDG absorption versus control (mature adipocytes; presence of INS)
1 | insulin | significantly reduced insulin responsiveness | unresponsive | not in ALMS1-silenced adipocytes | swelling of the vesicles | little effect | increased 2-NBDG uptake | loss of insulin-mediated acidification | rapid appearance of red color | – | – | – | –
2 | CO[C@@H]1C[C@@H](C[C@H]2CC[C@H](C)[C@H]([C@@H](C)C(=O)O)O2)O[C@]2(O[C@](C)([C@H]3CC[C@@](C)([C@@H]4O[C@@H]([C@H]5O[C@@](O)(CO)[C@H](C)C[C@@H]5C)C[C@@H]4C)O3)C[C@H]2C)[C@@H]1C [Nigericin] | – | – | induced vesicular swelling and fusion with the PM | induced vesicular swelling and fusion with the PM | restore 2-NBDG absorption in the ALMS1-silenced adipocytes to levels seen in control cells | – | rapid acidification | rapid acidification | restored GLUT4 fusion with the PM | restoration of TG-filling | – | –
3 | min-αPKC-FLAG: minimum ALMS1-interacting domain of αPKC (SEQ ID NOs: 14 and 15) with Flag-TAG, expressed from a lentiviral vector | – | – | – | – | – | – | – | – | – | – | 3.5 | no significant difference
